Type in all cases: biochemical
Experiment [1] concerns the target T1, insulin receptor kinase (IRK) (Rattus norvegicus, UniProt P15127).
T1 construct: from tissue; host or cells: rat liver; endosome (EN) and plasma membrane (PM) fractions
Description: Insulin receptor kinase (IRK) exogenous tyrosine kinase activity, Poly (Glu:Tyr) (4:1) substrate, WGA-purified IRK from preincubated cell fractions. Conditions: for IRK activity of ENs containing IR (FIG. 1A): versus absence of ATP.

The target in experiment [2] is T2, insulin receptor kinase (IRK) β-subunit (Rattus norvegicus, UniProt P15127).
T2 construct: from tissue; host or cells: rat liver; endosome (EN) and plasma membrane (PM) fractions
Put plainly: IRK β-subunit phosphotyrosine content (αPY immunoblot of WGA eluates). How it is done:
The phosphotyrosine content of endosomal IRs (ENs containing IR) was determined by subjecting lectin column (WGA-Sepharose™)-purified preparations to SDS-PAGE and immunoblotting with α960 and αPY (Faure et al. (1992) J. Biol. Chem. 267, 11215-11221). […] FIG. 1B illustrates the effect of ATP on β subunit phosphotyrosine content. WGA eluates (5 μg protein) were subjected to SDS-PAGE in 7.5% gels followed by transfer of proteins to Immobilon-P membranes. Membranes were probed with αPY or α960 antibodies followed by incubation with ^125I-GAR as second antibody and exposed for autoradiography.
For orientation: A western blot detects proteins with antibodies after separation by electrophoresis.

The next experiment deals with T3, EGF receptor (Rattus norvegicus, UniProt G3V6K6).
T3 construct: from tissue; host or cells: rat liver endosomes after EGF injection in vivo
Description: EGF receptor autophosphorylation in endosomes in the presence and absence of ATP. Conditions: ENs from EGF-treated rats incubated with 5 mM ATP. How it is done:
EGF (10 μg/100 g body weight) was injected via the jugular vein into anesthetized rats. The animals were sacrificed by decapitation 15 mins later and ENs containing EGF receptor were prepared as noted above. Resuspended ENs containing EGF receptor were incubated for 15 mins with 5 mM ATP after which auto-phosphorylation was initiated by adding ^32P-ATP. The reaction was stopped after 15 mins of incubation at 37° C. by adding Laemmli sample buffer after which aliquots (100 μg protein) were subjected to SDS-PAGE, alkali digestion, and radioautography as described previously (Faure, R. et al. (1992) J. Biol. Chem. 267, 11215-11221).
We then determined whether preincubation with ATP attenuated EGF receptor autophosphorylation. […] EN fractions, prepared 15 mins after injecting rats with EGF (10 μg/100 g body weight), were incubated in the presence or absence of ATP (5 mM) prior to conducting autophosphorylation with ^32P-ATP, SDS-PAGE, and autoradiography.

The target in experiment [3] is T2, insulin receptor kinase (IRK) β-subunit. Put plainly: 2-D phosphoamino acid analysis of the IRK β-subunit. Conditions: ENs incubated with 1 or 5 mM γ-32P ATP, 15 min 37° C. As for the experimental part:
ENs containing IR were removed from the 0.6/1.0 M sucrose interface of the gradient used in endosomal purification, and diluted with 0.25 M sucrose to a final protein concentration of 50 μg/ml. A 30 ml aliquot was centrifuged at 200,000×gav for 40 mins prior to resuspending in 500 μl of cell-free system buffer (44 mM HEPES (pH 7.4), 0.55 M sucrose, 333 mM KCl, 11 mM NaCl, 11 mM MgCl2). Incubations were initiated by adding 500 μl of 10 mM Tricine buffer containing either 2 or 10 mM ATP at a specific activity of 0.5 mCi ^32P/mmol. After incubating for 15 min at 37° C. the reaction was stopped by adding an equal volume of ice-cold 20 mM HEPES, 0.25 M sucrose, 2 mM PMSF, 2 mM benzamidine, 4 mM Na orthovanadate and 80 mM Na fluoride. […]
Previous work has shown that serine/threonine phosphorylation of the β-subunit of the IRK results in an inhibition of IRK activity. We thus determined if incubating ENs containing IR with 5 mM ATP promotes the phosphorylation of IRK on serine and threonine residues. […]

[4] abbreviates: preincubation 1 mM ATP 15 min, second incubation 5 mM ATP.
Where [5] appears, read: sequential incubations in 1 mM ATP.

Entries after “also recorded” stand apart in the source; their conditions may differ.

T1 sequence (P15127 27-759 limits assumed): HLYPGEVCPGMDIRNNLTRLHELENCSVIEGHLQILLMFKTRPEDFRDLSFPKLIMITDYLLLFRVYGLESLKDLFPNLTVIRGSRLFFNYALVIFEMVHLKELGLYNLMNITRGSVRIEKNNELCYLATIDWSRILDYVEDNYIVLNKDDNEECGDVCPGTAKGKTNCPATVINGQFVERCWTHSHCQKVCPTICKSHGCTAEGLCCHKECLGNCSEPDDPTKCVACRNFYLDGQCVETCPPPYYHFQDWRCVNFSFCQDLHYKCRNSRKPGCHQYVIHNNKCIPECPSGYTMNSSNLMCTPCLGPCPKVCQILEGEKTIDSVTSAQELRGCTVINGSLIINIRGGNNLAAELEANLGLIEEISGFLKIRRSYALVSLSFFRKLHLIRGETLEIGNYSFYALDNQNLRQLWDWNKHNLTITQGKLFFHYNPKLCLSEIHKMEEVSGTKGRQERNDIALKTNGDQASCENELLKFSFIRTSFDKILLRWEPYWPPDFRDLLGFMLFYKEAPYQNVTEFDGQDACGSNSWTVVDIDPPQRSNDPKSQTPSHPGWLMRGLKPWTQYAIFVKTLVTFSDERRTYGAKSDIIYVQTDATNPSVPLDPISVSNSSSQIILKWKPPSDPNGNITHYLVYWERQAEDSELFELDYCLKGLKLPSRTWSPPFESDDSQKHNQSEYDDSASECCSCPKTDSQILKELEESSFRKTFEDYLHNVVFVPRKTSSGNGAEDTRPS
T1 sequence (P15127 764-1383 limits assumed): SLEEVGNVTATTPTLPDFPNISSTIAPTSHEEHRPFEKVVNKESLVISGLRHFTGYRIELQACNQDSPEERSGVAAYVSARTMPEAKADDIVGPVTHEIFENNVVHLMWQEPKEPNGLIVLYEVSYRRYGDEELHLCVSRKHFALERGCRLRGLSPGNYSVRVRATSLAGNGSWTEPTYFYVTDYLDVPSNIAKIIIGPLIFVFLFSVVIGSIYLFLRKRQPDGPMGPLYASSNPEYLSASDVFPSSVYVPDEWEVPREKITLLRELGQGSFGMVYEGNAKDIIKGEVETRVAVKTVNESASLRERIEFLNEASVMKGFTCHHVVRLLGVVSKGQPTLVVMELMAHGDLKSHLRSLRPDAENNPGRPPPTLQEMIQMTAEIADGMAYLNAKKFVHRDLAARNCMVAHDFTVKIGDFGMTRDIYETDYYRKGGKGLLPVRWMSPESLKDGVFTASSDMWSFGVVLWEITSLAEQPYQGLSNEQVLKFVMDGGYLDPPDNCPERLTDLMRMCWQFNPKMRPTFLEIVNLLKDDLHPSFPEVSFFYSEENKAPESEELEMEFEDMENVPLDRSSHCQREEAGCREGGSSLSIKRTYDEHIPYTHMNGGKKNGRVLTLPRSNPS
T2 sequence (P15127 27-759 limits assumed): as the sequence (P15127 27-759 limits assumed) above
T2 sequence (P15127 764-1383 limits assumed): as the sequence (P15127 764-1383 limits assumed) above
T3 sequence (G3V6K6 25-1209): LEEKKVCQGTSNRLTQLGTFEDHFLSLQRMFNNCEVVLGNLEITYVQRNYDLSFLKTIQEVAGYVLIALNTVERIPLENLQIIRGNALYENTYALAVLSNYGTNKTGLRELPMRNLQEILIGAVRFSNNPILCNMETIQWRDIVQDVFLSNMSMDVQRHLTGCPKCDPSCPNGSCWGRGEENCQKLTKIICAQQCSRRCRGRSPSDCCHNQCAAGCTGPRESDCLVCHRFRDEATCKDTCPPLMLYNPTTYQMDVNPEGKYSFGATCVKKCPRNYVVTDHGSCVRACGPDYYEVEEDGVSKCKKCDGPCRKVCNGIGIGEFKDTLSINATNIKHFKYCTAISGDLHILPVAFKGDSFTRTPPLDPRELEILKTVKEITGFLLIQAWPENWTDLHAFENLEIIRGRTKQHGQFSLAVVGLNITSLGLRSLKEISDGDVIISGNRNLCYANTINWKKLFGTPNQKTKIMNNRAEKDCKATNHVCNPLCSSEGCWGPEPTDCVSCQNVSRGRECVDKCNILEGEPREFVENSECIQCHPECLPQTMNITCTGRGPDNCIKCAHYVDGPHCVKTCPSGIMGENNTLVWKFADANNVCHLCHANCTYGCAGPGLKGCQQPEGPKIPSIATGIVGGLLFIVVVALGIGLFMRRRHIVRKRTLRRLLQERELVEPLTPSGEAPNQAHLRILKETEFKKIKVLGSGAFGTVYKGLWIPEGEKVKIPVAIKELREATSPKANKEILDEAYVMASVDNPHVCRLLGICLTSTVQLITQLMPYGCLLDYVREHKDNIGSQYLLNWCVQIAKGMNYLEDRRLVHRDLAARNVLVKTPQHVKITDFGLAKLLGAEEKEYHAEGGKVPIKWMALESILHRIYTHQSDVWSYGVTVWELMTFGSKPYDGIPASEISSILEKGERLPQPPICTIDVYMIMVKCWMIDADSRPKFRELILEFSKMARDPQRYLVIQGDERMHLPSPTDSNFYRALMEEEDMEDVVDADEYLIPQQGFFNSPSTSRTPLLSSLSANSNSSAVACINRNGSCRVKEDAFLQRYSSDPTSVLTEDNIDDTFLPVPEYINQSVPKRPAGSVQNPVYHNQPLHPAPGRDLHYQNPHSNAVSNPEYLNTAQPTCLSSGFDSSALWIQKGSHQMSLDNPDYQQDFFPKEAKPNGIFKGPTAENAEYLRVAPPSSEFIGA

With `Nc1ncnc2c1ncn2[C@@H]1O[C@H](COP(=O)(O)OP(=O)(O)OP(=O)(O)O)[C@@H](O)[C@H]1O` [ATP, adenosine 5′triphosphate], the “IRK activity of ENs containing IR (FIG. 1A)” value was “marked decrease” in experiment [1] (5 mM ATP, 15 min 37° C.); “increase” in experiment [1] (0.1 and 1.0 mM ATP, 15 min 37° C.). The “IRK activity of ENs containing IR” value in experiment [1] (10 mM ATP, 15 min 37° C.) was “virtually abolished; also recorded: suppressed IRK activity completely”. Besides, the “Activity of WGA-purified IRK from plasma membrane (PM) (FIG. 3A)” value in experiment [1] (PM containing IR preincubated with ATP (1 and 10 mM), 15 min 37° C.) is on record as “augmentation of activity”. Further, in experiment [1] (setting [4]), the “IRK activity after sequential incubations (FIG. 7B)” value is “marked reduction”. For the same compound, the “IRK activity after sequential incubations” value in experiment [1] (setting [5]) is “no deleterious effect”. Moreover, the “IRK phosphotyrosine content (FIG. 1B)” value in experiment [2] (1 mM ATP, 15 min 37° C.) is “markedly increased”; in experiment [2] (5 mM ATP, compared to 1 mM ATP) it was “significantly reduced”; in experiment [2] (10 mM ATP, compared to 1 mM ATP), “virtually abolished”. In addition, the “IRK phosphotyrosine content after sequential incubations (FIG. 7A)” value in experiment [2] (setting [4]) is listed as “substantial retention”. In experiment [2] (setting [5]), the “IRK phosphotyrosine content after sequential incubations” value is “no deleterious effect”. Moreover, at EGF receptor, the “32P-labeling (autophosphorylation) of the EGF receptor (FIG. 3B)” value was “no significant attenuation”. In addition, in experiment [3], the “32P phosphoserine in IRK β-subunit (FIG. 5)” value was “no detectable”.

The values above are taken from patent US20040014637A1, “Mechanism for the inactivation of insulin receptor and uses in the treatment of type II diabetes” (McGill University, priority 1998, published 2004).
